Assay results from EP0682022B1, “Condensation products of melamine, benzotriazoles and aldehydes” (Ciba Specialty Chemicals Holding Inc., priority 1994, dated 1995).
≈ marks a conversion by molar mass, not a printed value.

Assay: Solubility in water
Type: physicochemical
Details: at room temperature, read-out: Löslichkeit in Wasser

Question: With `O=C(O)C(Nc1nc(NC(C(=O)O)n2cncn2)nc(NC(C(=O)O)n2cncn2)n1)n1cncn1` (stereo not shown) [Beispiel 25] as the compound, how does the solubility read?
Answer: 50 mg/mL (≈ 99.7 mM)
